As usually defined, the IC50 is the point on the concentration scale where inhibition reaches its midpoint.

Square brackets hold non-standard residues; d marks the D form. Peptide text beside a SMILES is read from it. * marks the point of attachment. Propionyl = CCC(=O)*; Mpa = O=C(O)CCS A value given as a limit tells only on which side of the number the result lay.

Chain of Stromelysin-1 (MMP-3) (Rattus norvegicus) (P03957 whole entry, looked up): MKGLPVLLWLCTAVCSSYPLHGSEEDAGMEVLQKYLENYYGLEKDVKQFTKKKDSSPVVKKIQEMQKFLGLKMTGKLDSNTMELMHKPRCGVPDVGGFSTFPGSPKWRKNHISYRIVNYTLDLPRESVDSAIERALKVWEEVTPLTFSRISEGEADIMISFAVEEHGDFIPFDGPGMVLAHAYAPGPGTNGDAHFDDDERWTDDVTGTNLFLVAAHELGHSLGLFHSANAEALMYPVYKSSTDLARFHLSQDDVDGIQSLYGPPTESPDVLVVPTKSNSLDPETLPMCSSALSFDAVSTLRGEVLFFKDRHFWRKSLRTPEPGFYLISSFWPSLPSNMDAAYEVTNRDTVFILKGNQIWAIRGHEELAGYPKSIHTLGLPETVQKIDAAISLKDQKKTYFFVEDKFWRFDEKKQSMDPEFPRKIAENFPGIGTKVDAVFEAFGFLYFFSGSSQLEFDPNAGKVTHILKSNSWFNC

One assay concerns the target Stromelysin-1 (MMP-3) (Rattus norvegicus) (UniProt P03957). Description: Compound was tested for its inhibitory activity against Matrix metalloprotease-3 (MMP-3) in adjuvant arthritic rat model of rheumatoid arthritis.
As for `CNC(=O)[C@H](Cc1c[nH]c2ccccc12)NC(=O)[C@H](CSC)NC(=O)CS` [(R)-N-[(S)-2-(1H-Indol-3-yl)-1-methylcarbamoyl-ethyl]-2-(2-mercapto-acetylamino)-3-methylsulfanyl-propionamide], the IC50 is 810 nM.

As to `CNC(=O)[C@H](Cc1c[nH]c2ccccc12)NC(=O)[C@H](CC(C)C)NC(=O)CS` [(S)-2-(2-Mercapto-acetylamino)-4-methyl-pentanoic acid [(S)-2-(1H-indol-3-yl)-1-methylcarbamoyl-ethyl]-amide], the 50% inhibitory concentration (IC50) stood at 430 nM. Same read-out and setting: then `CNC(=O)[C@H](Cc1cscn1)NC(=O)[C@H](CC(C)C)NC(=O)CS` [(S)-2-(2-Mercapto-acetylamino)-4-methyl-pentanoic acid ((S)-1-methylcarbamoyl-2-thiazol-4-yl-ethyl)-amide], with 430 nM.

A further assay has the same target. Described as above. The source holds these as a separate data set.
For the compound `CNC(=O)[C@H](Cc1ccccc1)NC(=O)[C@@H](NC(=O)CS)C(C)O` (stereo partly drawn) [(S)-3-Hydroxy-2-(2-mercapto-acetylamino)-N-((S)-1-methylcarbamoyl-2-phenyl-ethyl)-butyramide], the IC50 was greater than 100000 nM. Still for that read-out and setting: for `CNC(=O)[C@H](Cc1ccccc1)NC(=O)[C@H](CSC)NC(=O)CS` [(R)-2-(2-Mercapto-acetylamino)-N-((S)-1-methylcarbamoyl-2-phenyl-ethyl)-3-methylsulfanyl-propionamide] the value was 650 nM; for `CNC(=O)[C@H](Cc1ccccc1)NC(=O)[C@H](CC(C)C)NC(=O)CS` [(S)-2-(2-Mercapto-acetylamino)-4-methyl-pentanoic acid ((S)-1-methylcarbamoyl-2-phenyl-ethyl)-amide], 2600 nM. The same measure, in the same setting: then `CCC(=O)N[C@@H](CC(C)C)C(=O)N[C@@H](Cc1ccccc1)C(=O)NC` [(S)-4-Methyl-2-propionylamino-pentanoic acid ((S)-1-methylcarbamoyl-2-phenyl-ethyl)-amide] (Propionyl-Leu-Phe-NHMe), with greater than 100000 nM; and `CNC(=O)[C@H](Cc1ccccc1)NC(=O)[C@H](CC(C)C)NC(=O)CCS` [(S)-2-(3-Mercapto-propionylamino)-4-methyl-pentanoic acid ((S)-1-methylcarbamoyl-2-phenyl-ethyl)-amide] ([Mpa]-Leu-Phe-NHMe), with greater than 100000 nM.

As to `CNC(=O)[C@H](Cc1ccccc1)NC(=O)[C@H](CC(C)C)NC(=O)CSC` [(S)-4-Methyl-2-(2-methylsulfanyl-acetylamino)-pentanoic acid ((S)-1-methylcarbamoyl-2-phenyl-ethyl)-amide], the IC50 was greater than 100000 nM. On the same count and under the same terms, then `CNC(=O)[C@H](Cc1ccccc1)NC(=O)[C@H](C[S+](C)[O-])NC(=O)CS` (stereo partly drawn) [(R)-2-(2-Mercapto-acetylamino)-3-methanesulfinyl-N-((S)-1-methylcarbamoyl-2-phenyl-ethyl)-propionamide], with 8500 nM.
